According to publication PMC7730182, “Synthesis and in Silico Modelling of the Potential Dual Mechanistic Activity of Small Cationic Peptides Potentiating the Antibiotic Novobiocin against Susceptible and Multi-Drug Resistant Escherichia coli” (International Journal of Molecular Sciences, 2020):

Columns and labels:
[1] = test system: susceptible E. coli NCTC 10418; test: Novobiocin potentiation assay (MIC of novobiocin with fixed concentration of peptide or PAβN); type: cell-based, Escherichia coli; parameters: key to MIC of Novobiocin, E. coli NCTC 10418, +128 μg/mL added peptide / MIC of Novobiocin, E. coli NCTC 10418, +32 μg/mL added peptide: Non potentiating (NP) indicated no reduction in the MIC of novobiocin was observed; conditions: broth microdilution, Iso-Sensitest Broth, 5 × 10^5 CFU/mL, visual read-out, duplicate; for MIC of Novobiocin, E. coli NCTC 10418, +128 μg/mL added peptide: fixed 128 μg/mL peptide
Description: (§1) The peptides were also tested in combination with antibiotics novobiocin and norfloxacin. Novobiocin has low efficacy against Gram-negative bacteria due to its hydrophobicity, giving limited cell permeability.
(§2) The antibacterial activity of the peptides and peptide/antibiotic combinations were tested by the broth microdilution assay according to [24]. Escherichia coli NCTC 10,418 and Staphylococcus aureus NCTC 12,981 were obtained from the National Collection of Type Cultures, UK. Escherichia coli G69 was a clinical isolate as previously described.
(§3) Briefly, all bacterial strains were cultured on nutrient agar (Sigma-Aldrich, Gillingham, UK) plates and incubated for 24 h at 37 °C prior to MIC determination. In addition, known quantities of each test sample were dissolved in DMSO and then diluted in ISB (Iso- Sensitest Broth, Oxoid, Basingstoke, UK) to give a range concentration of 128–0 μg/mL, unless stated differently. […] Finally, the overnight cultures of each of the tested strains were suspended to an inoculum density of approximately 1.0 × 10^8 CFU/mL in phosphate buffered saline (PBS), consisting of 137 mM NaCl, 3 mM KCl, 8 mM Na2HPO4, and […] (Oxoid, Basingstoke, UK). The cell suspensions were standardized by adjusting the optical density to 0.1 at 600 nm (Thermo Scientific UV-Vis Spectrophotometer, Abingdon, UK) before being diluted 1:100 in ISB prior to inoculation
(§4) The assays were performed by microdilution using 96-well microtiter plates with a final inoculum of 5 × 10^5 CFU/mL and each sample was tested in duplicate in at least two independent experiments in order to confirm the reliability of the data. Results were determined by visual inspection of the wells and the presence of an evident opaque medium or white pellets were indicative of bacterial growth. The MIC values were recorded as the lowest concentration at which no bacterial growth was detected.

[2] = test system: multi-drug resistant clinical isolate E. coli G69; test: as above; type: cell-based, Escherichia coli; parameters: key to MIC of Novobiocin, E. coli G69, +32 μg/mL added peptide / MIC of Novobiocin, E. coli G69, +128 μg/mL added peptide: Non potentiating (NP) indicated no reduction in the MIC of novobiocin was observed; conditions: for potentiation of novobiocin against multi-drug resistant E. coli, result in words: E. coli G69, added peptide; for MIC of Novobiocin, E. coli G69, +32 μg/mL added peptide / MIC of Novobiocin, E. coli G69, +128 μg/mL added peptide: broth microdilution, Iso-Sensitest Broth, 5 × 10^5 CFU/mL, visual read-out, duplicate; for MIC of Novobiocin, E. coli G69, +32 μg/mL added peptide: fixed 32 μg/mL peptide; for MIC of Novobiocin, E. coli G69, +128 μg/mL added peptide: fixed 128 μg/mL peptide
Description: as §1, §2, §3, §4

Substance | MIC of Novobiocin, E. coli NCTC 10418, +128 μg/mL added peptide [1] | potentiation of novobiocin against multi-drug resistant E. coli, result in words [2] | MIC of Novobiocin, E. coli G69, +32 μg/mL added peptide [2] | MIC of Novobiocin, E. coli G69, +128 μg/mL added peptide [2] | MIC of Novobiocin, E. coli NCTC 10418, +32 μg/mL added peptide ([1]; fixed 32 μg/mL peptide) [µg/mL]
FRFRF [Compound 10, short cationic peptide FRFRF, amidated at the C-terminus] | 2 µg/mL | restore the susceptibility | 8 µg/mL | 4 µg/mL | 
FKFK [Compound 17, short cationic peptide FKFK, amidated at the C-terminus] | NP |  |  | NP | 
KFKF [Compound 18, short cationic peptide KFKF, amidated at the C-terminus] | NP |  |  | NP | 
FRFR [Compound 8, short cationic peptide FRFR, amidated at the C-terminus] | NP |  | NP | 8 µg/mL | 
KWKW [Compound 14, short cationic peptide KWKW, amidated at the C-terminus] | NP |  |  | NP | 
RRFRF [Compound 11, short cationic peptide RRFRF, amidated at the C-terminus] | 64 µg/mL |  |  | 64 µg/mL | 
FKFKF [Compound 19, short cationic peptide FKFKF, amidated at the C-terminus] | 4 µg/mL | restore the susceptibility | 32 µg/mL | 8 µg/mL | 128
WKWK [Compound 13, short cationic peptide WKWK, amidated at the C-terminus] | NP |  |  | NP | 
